From patent EP0119737A2, “Pharmaceutical composition and its production” (Takeda Chemical Industries, Ltd., priority 1983, dated 1984) come the findings set out here.

Experiment [1] has as its system Escherichia coli IFO 3044. Description: Minimal inhibitory concentration (MIC) of preservative solutions, serial dilution in culture medium, read with the naked eye. Format: cell-based. The following applies: IFO3044, 72 h, E. coli IFO 3044, 10^5 cfu/ml, 35°C, 3 days. As for the experimental part: (§1) Thus, two culture media are prepared by adding 0% and 5% of a-cyclodextrin, respectively, to a 1/15 M phosphate buffer (pH 6.5) containing 2% of Polypeptone (Daigo Nutritive Chemicals Ltd., Japan). The preservative is added to each medium and the resulting solution is diluted serially with each of the respective media to give solutions differing in preservative concentration. The test organisms are added to these solutions to a final concentration of 10^5 cfu/ml (cfu: colony forming unit).

Experiment [2] deals with Aspergillus niger ATCC 9642. Described as above. The following applies: ATCC9642, 120 h, A. niger ATCC 9642, 10^5 cfu/ml, 25°C, 5 days. Format: cell-based. The protocol: as §1
The mark [3] stands for this setting: pH 6.5, Culture medium + 5% α-cyclodextrin.
The mark [4] stands for this setting: pH 6.5, Culture medium without addition of cyclodextrin.

Values after ≈ are worked out from the molar mass of the structure shown.

Take `CCCCOC(=O)c1ccc(O)cc1` [Butylparaben]: the MIC (in general, the smallest concentration in the dilution series that meets the test's criterion for growth inhibition) was found to be 4000 µg/mL in experiment [1] (setting [3]), 125 µg/mL (≈ 644 µM) in experiment [1] (setting [4]), 4000 µg/mL in experiment [2] (setting [3]) and 125 µg/mL (≈ 644 µM) in experiment [2] (setting [4]).
Turning to `CCOC(=O)c1ccc(O)cc1` [Ethylparaben], the MIC was 4000 µg/mL in experiment [1] (setting [3]), 500 µg/mL (≈ 3010 µM) in experiment [1] (setting [4]), 4000 µg/mL in experiment [2] (setting [3]) and 250 µg/mL (≈ 1500 µM) in experiment [2] (setting [4]).
For `COC(=O)c1ccc(O)cc1` [Methylparaben], the MIC turned out to be 4000 µg/mL in experiment [1] (setting [3]), 500 µg/mL (≈ 3290 µM) in experiment [1] (setting [4]), 4000 µg/mL in experiment [2] (setting [3]) and 500 µg/mL (≈ 3290 µM) in experiment [2] (setting [4]).
In the case of `CCCOC(=O)c1ccc(O)cc1` [Propylparaben], the MIC in experiment [1] (setting [3]) was determined as 4000 µg/mL; in experiment [1] (setting [4]) it was 250 µg/mL (≈ 1390 µM); in experiment [2] (setting [3]), 4000 µg/mL; in experiment [2] (setting [4]) it was 125 µg/mL (≈ 694 µM).
For the compound `Cc1cc(O)ccc1Cl` [p-Chloro-m-cresol, p-chloro-m-cresol], the MIC in experiment [1] (setting [3]) was determined as 200 µg/mL; in experiment [1] (setting [4]), 200 µg/mL (≈ 1400 µM); in experiment [2] (setting [3]), 200 µg/mL; in experiment [2] (setting [4]), 100 µg/mL (≈ 701 µM).
`Cc1cc(O)cc(C)c1Cl` [p-Chloro-m-xylenol, p-chloro-m-xylenol]: the MIC in experiment [1] (setting [3]) is 150 µg/mL; in experiment [1] (setting [4]) it was 100 µg/mL (≈ 639 µM); in experiment [2] (setting [3]), 75 µg/mL; in experiment [2] (setting [4]) it was 50 µg/mL (≈ 319 µM).
`Oc1ccc(Cl)cc1` [p-Chlorophenol, p-chlorophenol]: the MIC in experiment [1] (setting [3]) was 400 µg/mL; in experiment [1] (setting [4]), 200 µg/mL (≈ 1560 µM); in experiment [2] (setting [3]), 400 µg/mL; in experiment [2] (setting [4]), 200 µg/mL (≈ 1560 µM).
